# Measurements taken from patent publication US9993494B2, “Compositions and methods for treating fibrotic disease” (eFFECTOR Therapeutics, Inc., priority 2014, dated 2018).
# System: normal human lung fibroblasts
# Assay: Ribosomal profiling: translational efficiency in TGFβ-treated fibroblasts
# Format: cell-based
# Conditions: TGFβ-treated fibroblasts
# Method: Ribosomal profiling allows for measurement of changes in transcription and translation on a genome-wide basis accompanying TGFβ-dependent transformation of fibroblasts to myofibroblasts. Ribosomal profiles of the TGFβ-treated fibroblasts from Example 1 (about 6×10^6 cells/10 cm plate) were prepared and analyzed for changes in translational efficiencies with respect to potential disease-associated cellular changes accompanying this TGFβ-induced transformation.
# Briefly, cells were washed with cold PBS supplemented with cycloheximide and lysed with 1× mammalian cell lysis buffer for 10 minutes on ice. Lysates were clarified by centrifugation for 10 minutes at 14,000 rpm and supernatants were collected. Cell lysates were processed to generate ribosomal protected fragments and total mRNA according to the instructions included with the ARTseq Ribosome Profiling Kit (Illumina, San Diego, Calif.). Sequencing of total RNA (RNA) and of ribosome-protected fragments of RNA (RPF) was carried out using RNA-Seq methodology according to the manufacturer's instructions (Illumina). To analyze the ribosomal profiles, RNA-Seq reads were processed with tools from the FASTX-Toolkit (fastq_quality_trimmer, fastx_clipper and fastx_trimmer). Unprocessed and processed reads were evaluated for a variety of quality measures using FastQC, and processed reads were mapped to the human genome using TopHat (see, e.g., Trapnell et al., Bioinformatics 25:1105, 2009). Gene-by-gene assessment of the number of fragments strictly and uniquely mapping to the coding region of each gene was conducted using HTSeq-count, a component of the HTSeq package. […] Genes with low counts in either RPF or RNA were excluded from differential analyses. Pathway and network analyses of differential data were conducted using Ingenuity Pathway Analysis (IPA).
smiles,measurement,setting,value
"Cc1cc(C2CCCCC2)n(O)c(=O)c1.NCCO [CPX, ciclopirox oloamine]",renormalizing the translational profile of NECAB3,ENSG00000125967,− (− = <0.9)
same,renormalizing the translational profile of COX7C,ENSG00000127184,− (− = <0.9)
same,renormalizing the translational profile of LIF,ENSG00000128342,− (− = <0.9)
same,renormalizing the translational profile of MTUS1,ENSG00000129422,− (− = <0.9)
same,renormalizing the translational profile of ARHGEF6,ENSG00000129675,− (− = <0.9)
same,renormalizing the translational profile of RPL36,ENSG00000130255,− (− = <0.9)
same,renormalizing the translational profile of GDF15,ENSG00000130513,− (− = <0.9)
same,renormalizing the translational profile of ASS1,ENSG00000130707,− (− = <0.9)
same,renormalizing the translational profile of EIF2S3,ENSG00000130741,− (− = <0.9)
same,renormalizing the translational profile of RPL27,ENSG00000131469,− (− = <0.9)
same,renormalizing the translational profile of MATN3,ENSG00000132031,− (− = <0.9)
same,renormalizing the translational profile of PPARG,ENSG00000132170,− (− = <0.9)
same,renormalizing the translational profile of KDM6B,ENSG00000132510,− (− = <0.9)
same,renormalizing the translational profile of RARRES3,ENSG00000133321,− (− = <0.9)
same,renormalizing the translational profile of BIVM,ENSG00000134897,+ (+ = 0.9 to 1.5)
same,renormalizing the translational profile of ATP5G2,ENSG00000135390,− (− = <0.9)
same,renormalizing the translational profile of KRT7,ENSG00000135480,++ (++ = 1.5 to 2.0)
same,renormalizing the translational profile of HNRNPA1,ENSG00000135486,− (− = <0.9)
same,renormalizing the translational profile of IL6,ENSG00000136244,− (− = <0.9)
same,renormalizing the translational profile of RPL35,ENSG00000136942,− (− = <0.9)
same,renormalizing the translational profile of NOV,ENSG00000136999,− (− = <0.9)
same,renormalizing the translational profile of IER3,ENSG00000137331,− (− = <0.9)
same,renormalizing the translational profile of DDX60,ENSG00000137628,− (− = <0.9)
same,renormalizing the translational profile of RPLP1,ENSG00000137818,− (− = <0.9)
same,renormalizing the translational profile of PAQR5,ENSG00000137819,+ (+ = 0.9 to 1.5)
same,renormalizing the translational profile of AOX1,ENSG00000138356,− (− = <0.9)
same,renormalizing the translational profile of FGF5,ENSG00000138675,− (− = <0.9)
same,renormalizing the translational profile of PDE5A,ENSG00000138735,− (− = <0.9)
same,renormalizing the translational profile of GAS2L3,ENSG00000139354,− (− = <0.9)
same,renormalizing the translational profile of DIAPH3,ENSG00000139734,− (− = <0.9)
same,renormalizing the translational profile of MYO19,ENSG00000141140,− (− = <0.9)
same,renormalizing the translational profile of RPL13A,ENSG00000142541,− (− = <0.9)
same,renormalizing the translational profile of RPL11,ENSG00000142676,− (− = <0.9)
same,renormalizing the translational profile of ACTA1,ENSG00000143632,+ (+ = 0.9 to 1.5)
same,renormalizing the translational profile of PLEKHA6,ENSG00000143850,+ (+ = 0.9 to 1.5)
same,renormalizing the translational profile of RPL32,ENSG00000144713,− (− = <0.9)
same,renormalizing the translational profile of RPL37,ENSG00000145592,− (− = <0.9)
same,renormalizing the translational profile of BTF3,ENSG00000145741,− (− = <0.9)
same,renormalizing the translational profile of HIGD2A,ENSG00000146066,− (− = <0.9)
same,renormalizing the translational profile of CREB5,ENSG00000146592,− (− = <0.9)
same,renormalizing the translational profile of DENND2A,ENSG00000146966,− (− = <0.9)
same,renormalizing the translational profile of RPL10,ENSG00000147403,− (− = <0.9)
same,renormalizing the translational profile of EIF3H,ENSG00000147677,− (− = <0.9)
same,renormalizing the translational profile of RPL7A,ENSG00000148303,− (− = <0.9)
same,renormalizing the translational profile of EIF3M,ENSG00000149100,− (− = <0.9)
same,renormalizing the translational profile of FAU,ENSG00000149806,− (− = <0.9)
same,renormalizing the translational profile of CCDC102B,ENSG00000150636,− (− = <0.9)
same,renormalizing the translational profile of FRMD4A,ENSG00000151474,+ (+ = 0.9 to 1.5)
same,renormalizing the translational profile of HOMER1,ENSG00000152413,− (− = <0.9)
same,renormalizing the translational profile of PLEKHH2,ENSG00000152527,− (− = <0.9)
same,renormalizing the translational profile of ANKH,ENSG00000154122,− (− = <0.9)
same,renormalizing the translational profile of ABCA6,ENSG00000154262,− (− = <0.9)
same,renormalizing the translational profile of OBSCN,ENSG00000154358,+ (+ = 0.9 to 1.5)
same,renormalizing the translational profile of ADAMTS5,ENSG00000154736,+ (+ = 0.9 to 1.5)
same,renormalizing the translational profile of OXA1L,ENSG00000155463,− (− = <0.9)
same,renormalizing the translational profile of C9orf85,ENSG00000155621,− (− = <0.9)
same,renormalizing the translational profile of RPL30,ENSG00000156482,− (− = <0.9)
same,renormalizing the translational profile of EEF1A1,ENSG00000156508,− (− = <0.9)
same,renormalizing the translational profile of NRG1,ENSG00000157168,− (− = <0.9)
same,renormalizing the translational profile of ADAMTS4,ENSG00000158859,− (− = <0.9)
same,renormalizing the translational profile of RPL8,ENSG00000161016,− (− = <0.9)
same,renormalizing the translational profile of RPL26,ENSG00000161970,− (− = <0.9)
same,renormalizing the translational profile of RPL29,ENSG00000162244,− (− = <0.9)
same,renormalizing the translational profile of CAMK2N1,ENSG00000162545,− (− = <0.9)
same,renormalizing the translational profile of IGFBP7,ENSG00000163453,− (− = <0.9)
same,renormalizing the translational profile of RPL22L1,ENSG00000163584,− (− = <0.9)
